Consider nine compounds from publication PMC11172460 (International Journal of Molecular Sciences, 2024).

Like-named read-outs stand apart in the source and are kept apart here.

The conditions of data set [1]: rodents and humans, ranging from a few minutes to 30 min; cited from earlier work.
The conditions of data set [2]: same tristearin carriers; cited from earlier work.
The conditions of data set [3]: rat brain homogenates, cited from earlier work; for amount hydrolyzed: within 6 h.
The conditions of data set [4]: rat liver homogenates, cited from earlier work.
Details of data set [5]: method as in PMID 10669289. As to conditions: 1-octanol/water; cited from earlier work.
Data set [6] relates to differentiated N2a cells. Kind of data set: MTT assay of H2O2-altered viability (neuroprotection). The class given is cell-based, mouse. As to conditions: 100 µM H2O2 for 24 h. The procedure:
(§1) N2a cells were seeded on T75 flasks and grown in Dulbecco’s Modified Eagle Medium (DMEM) containing Glutamax, supplemented with 100 μg/mL streptomycin, 100 IU/mL penicillin, and 10% fetal bovine serum (FBS) in a humidified 5% CO2 atmosphere at 37 °C. After two passages by trypsinization, cells were seeded at a density of 5 × 10^3 cells/well in 12-well plates with 2 mL of DMEM or at a density of 5 × 10^2 cells/well in 96-well plates with 0.2 mL of DMEM, depending on the study (see below). For neural differentiation, N2a cells were allowed to adhere and proliferate in wells for 4 days; then, after washing once with serum-free DMEM, differentiating medium composed of DMEM containing 1% HS and 20 μM all-trans-retinoic acid (atRA) was added in both the seeding conditions, up to 6 days of differentiation, after which the cells were used for the experiments.
The MTT assay was also carried out to determine the neuroprotective effect of Fer-Ger on H2O2-induced cell oxidative stress in N2a neuronal cells. Briefly, N2a cells (5 × 10^2) were seeded and differentiated into 96-well plates, as reported above. Then, cells were incubated with 1 µM and 5 µM Fer-Ger dissolved in DMEM containing 0.5% HS for 1 h in a humidified 5% CO2 atmosphere at 37 °C. The experimental design therefore included cells incubated with only culture medium as a control and cells incubated for 24 h with 100 µM H2O2 as a damage-inducing agent after 1 h of preincubation in the absence or presence of 1 µM or 5 µM Fer-Ger. Then, 20 μL of MTT (5 mg/mL) was added into the 200 µL of the incubation medium. Four hours later, the medium containing MTT was aspirated and replaced by 100 µL of dimethyl sulfoxide (DMSO) solubilization agent for 1 h at 37 °C in an orbital shaker incubator. Finally, the absorbance of each well was measured at 570 nm using a microtiter plate reader (Sunrise® Microplate Reader, Tecan Trading AG, Männedorf, Switzerland).
(Formazan colour is commonly taken as a measure of viable cells.)

Data set [7] concerns differentiated N2a cells. The data set is described as follows: DCFH-DA assay of intracellular ROS production. Format: cell-based, mouse. As for the experimental part:
as §1
The potential antioxidant effect of Fer-Ger was evaluated according to the original method of Wang and Joseph. In this method, the nonpolar 2′,7′-dichlorofluorescin diacetate (DCFH-DA) enters the intact cells and is hydrolyzed by intracellular esterases to nonfluorescent DCFH carboxylate anion, which remains entrapped and becomes the high fluorescent dichlorofluorescin (DCF) after oxidation by free radicals generated by a stressor, such as H2O2. Therefore, H2O2-induced intracellular ROS production was measured in N2a cells by a florescence intensity assay following exposure to the oxidation-sensitive dye DCFH-DA. N2a cells were seeded at a density of 1 × 10^4 cells/well in a black-coated and clear bottom 96-well plate and neuron-differentiated as reported above. After 6 days, differentiating medium in N2a cells was replaced with pre-warmed phenol-red-free and serum-free DMEM containing 10 µM DCFH-DA and incubated for 30 min in the dark in a humidified 5% CO2 atmosphere at 37 °C. The 10 µM DCFH-DA loading solution was then removed, and the cells were washed twice with fresh phenol-red-free and serum-free DMEM to remove the redundant extracellular DCFH-DA probe. Subsequently, N2a cells were incubated with pre-warmed phenol-red free DMEM containing 1% FBS as an untreated control and with solutions dissolved in phenol-red free DMEM containing 1% FBS of Fer-Ger (1, 5, or 10 µM) or 100 µM ascorbic acid (AA, as an established antioxidant positive control) and incubated for 1 h in a humidified 5% CO2 atmosphere at 37 °C. After this time, 100 µM H2O2 was added in the absence or presence of 1, 5 or 10 µM Fer-Ger or 100 µM AA, and the fluorescence intensity was measured at an excitation wavelength of 485 nm and at an emission wavelength of 530 nm, monitoring the oxidation of DCFH to DCF by the intracellular ROS by running the kinetic over 75 min in a fluorescence microplate reader (VICTOR^3TM 1420 Multilabel counter, PerkinElmer, Milan, Italy). Results were represented as a percentage of intracellular ROS production (100% of control) resulting from the mean values ± SEM of sextuplicate wells over time.

As to `COc1cc(/C=C/C(=O)O)ccc1O` [Fer, ferulic acid], in data set [1], the in vivo half-lives is recorded as ≤ 30 min. In data set [2], the drug loading was 0.38 % w/w and the “encapsulation efficiency (EE)” value was “about 14%”.

In the case of `COC(=O)/C=C/c1ccc(OC(=O)/C=C/c2ccc(O)c(OC)c2)c(OC)c1` [Fer-Fer-Me], the half-life of hydrolysis entry in data set [3] is “about 14 min”. Further, in data set [2], the drug loading is reported as 0.49 % w/w and the “encapsulation efficiency (EE)” value was “about 19%”.

As for `COc1cc(C=CC(=O)Oc2ccc(C=CC(=O)O)cc2OC)ccc1O` [Fer-Fer], in data set [3], the amount hydrolyzed entry is “about 50%”.

Turning to `COC(=O)/C=C/c1ccc(O)c(OC)c1` [Fer-Me], in data set [3], the hydrolysis result is on record as “total absence of hydrolysis processes”. In addition, in data set [2], the drug loading was 0.72 % w/w and the “encapsulation efficiency (EE)” value is “about 28%”.

`CC(C)=CCCC(C)=CCOC(=O)CCC(C)C1CCC2C3C(O)CC4CC(O)CCC4(C)C3CCC12C` (stereo not shown) [GER-UDCA]: the amount hydrolyzed entry in data set [3] is reported as “about 30%”. Moreover, the half-life of hydrolysis result in data set [4] was “higher than 30 min”.

A word on the Log P: it is the decadic logarithm of the partition coefficient of the neutral form, usually between octanol and water. Take `CC(C)=CCC/C(C)=C/CO` [Ger, geraniol]: the lipophilicity (Log P) in data set [5] is 3.56. For the same compound, the in vivo half-lives in data set [1] is ≤ 30 min.

Turning to `OO` [H2O2, hydrogen peroxide, reference compound], in the data set with differentiated N2a cells [6], the “reduction of cell viability compared to untreated cells” value was 74%. For the same compound, the “effect on DCF fluorescence (ROS production)” value in the data set on differentiated N2a cells [7] (100 µM H2O2, 75 min observation) is “significantly and time-dependently increased DCF fluorescence”.

With `Cc1cn([C@H]2C[C@H](N=[N+]=[N-])[C@@H](COC(=O)CC[C@@H](C)[C@H]3CC[C@H]4[C@@H]5[C@@H](O)C[C@@H]6C[C@H](O)CC[C@]6(C)[C@H]5CC[C@]34C)O2)c(=O)[nH]c1=O` [UDCA-AZT], the half-life of hydrolysis entry in data set [3] was “about 7 min”. For the same compound, in data set [2], the drug loading is listed as 0.57 % w/w and the “encapsulation efficiency (EE)” value was “about 26%”. Further, the hydrolysis rate result in data set [4] (ref our previous results) was “the same hydrolysis rate as Fer-Ger”.

For `O=C1O[C@H]([C@@H](O)CO)C(O)=C1O` [ascorbic acid], the “effect on basal ROS production” value in the data set on differentiated N2a cells [7] (100 µM ascorbic acid alone) is “without by itself modifying basal ROS production”. Also, the “effect on H2O2-induced ROS production” value in the data set with differentiated N2a cells [7] (100 µM ascorbic acid with 100 µM H2O2) is on record as “completely prevented the H2O2-induced ROS production”.
